Laboratory results taken from paper PMC10709440, “High-throughput ligand profile characterization in novel cell lines expressing seven heterologous insect olfactory receptors for the detection of volatile plant biomarkers” (Scientific Reports, 2023).

Columns and labels:
[1] = target: T1, Drosophila OR13a (Drosophila melanogaster, UniProt Q9VXL0); test: Calcium ion fluorescence (GCaMP6) assay, OR13a stable HEK293 cell line; format: cell-based; settings: for DF norm AVERAGE OR13a: 0.05 threshold, values below shown as 0
T1 construct: expressed in transfected cells
T1 sequence (Q9VXL0 1-418): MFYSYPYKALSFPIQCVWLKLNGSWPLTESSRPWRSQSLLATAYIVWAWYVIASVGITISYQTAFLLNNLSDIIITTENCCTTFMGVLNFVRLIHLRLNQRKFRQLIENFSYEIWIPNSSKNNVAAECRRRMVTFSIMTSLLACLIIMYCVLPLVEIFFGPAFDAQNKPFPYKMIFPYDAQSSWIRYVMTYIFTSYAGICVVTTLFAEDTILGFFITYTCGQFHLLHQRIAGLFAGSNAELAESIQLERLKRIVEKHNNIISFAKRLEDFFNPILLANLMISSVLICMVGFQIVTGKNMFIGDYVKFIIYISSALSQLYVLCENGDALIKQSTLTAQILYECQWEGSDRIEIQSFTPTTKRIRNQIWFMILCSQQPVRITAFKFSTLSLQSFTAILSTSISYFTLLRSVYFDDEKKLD
T1 sequence (Q9VNB5 1-486 partner): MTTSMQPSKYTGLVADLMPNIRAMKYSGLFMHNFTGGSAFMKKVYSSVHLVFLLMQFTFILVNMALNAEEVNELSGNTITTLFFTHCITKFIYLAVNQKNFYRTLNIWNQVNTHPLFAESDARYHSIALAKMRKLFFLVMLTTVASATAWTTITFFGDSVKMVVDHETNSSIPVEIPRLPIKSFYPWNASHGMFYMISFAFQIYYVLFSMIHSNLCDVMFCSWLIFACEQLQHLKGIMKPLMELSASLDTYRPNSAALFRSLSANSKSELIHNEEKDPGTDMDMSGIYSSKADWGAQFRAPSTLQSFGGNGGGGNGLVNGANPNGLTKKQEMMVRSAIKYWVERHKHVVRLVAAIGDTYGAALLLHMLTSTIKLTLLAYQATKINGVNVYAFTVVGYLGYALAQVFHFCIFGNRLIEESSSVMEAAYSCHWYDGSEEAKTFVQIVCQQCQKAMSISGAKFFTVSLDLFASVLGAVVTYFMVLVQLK
Description: (§1) These VUAA1 normalized ∆F values were used to compare the different receptors and ligands.
(§2) The concentration-dependent effect of the reference ligands on their cognate cell lines was examined in more detail. Twelve different ligand concentrations were measured on each cell line in an overall 0.01 μM to 100 μM concentration range with 5 repetitions with three technical replicates each time.
(§3) Twelve thousand to 18,000 cells were plated into each well of a black wall, transparent bottom 384-well microplate (Greiner) 48 h or 72 h before the measurements and were simultaneously treated with 1 μg/mL doxycycline. […] The plate has 24 columns, thus we could record responses in up to eight different cell lines in each plate. On the day of the experiment, the growth medium was replaced with 20 µL assay buffer/well (140 mM NaCl, 5 mM KCl, 2 mM CaCl2, 1 mM MgCl2, 5 mM HEPES-Na, 20 mM glucose, pH 7.3, 340 mOsm). […] Baseline fluorescence (F0) was recorded for 5 s, after which 7 µL VOC buffer (140 mM NaCl, 5 mM KCl, 2 mM CaCl2, 1 mM MgCl2, 5 mM HEPES-Na, 31 mM glucose, 0.1% DMSO, pH 7.3, 340 mOsm) was injected into each well in one row and the fluorescence response was recorded for an additional 30 s, at a rate of one read/sec. VOC solutions (VOC buffer with 4× concentration of the final measured VOC concentration, 9 µL/well was injected) were measured on the same wells in a second round with the same protocol. Each individual concentration of a specific VOC sample was recorded in three wells for the same cell line on the same microplate. The raw data were exported in xls file format, F0 and FMAX values, and the fluorescence intensity changes (∆F) were calculated in Excel (Microsoft) (Supplementary file Data summary.xlsx) using the following equation: ΔF=FMAX-F0/F0 (see also Fig. 1C). On each plate, we recorded the response of each cell line to 50 µM VUAA1. The average of these ∆F values of each cell line were used to calculate the VUAA1-normalized values for the rest of the plate, by dividing VOC response ∆F values by the average VUAA1 response ∆F value of the corresponding OR cell line. Each VOC-OR combination was measured three times as technical replicates. […] The average of these replicates were used as one ∆F and VUAA1-normalized ∆F in the following analysis.
(§4) In the next rows we tested the reference VOCs (or other VOCs known to activate the corresponding cell lines), in order to test if all cell lines are responsive. The remaining rows were used to test VOCs with unknown effect.
(§5) The recorded FMAX, F0, ∆F, VUAA1-normalized ∆F values, as well as the OR name, the name of the tested sample, and the final concentration for each well were copied into supplementary file Data summary.xlsx, that was used to summarize all the plates recorded. Here, the averages of the measurements were calculated for each receptor-VOC-concentration combination.

[2] = target: T2, Drosophila OR47a (Drosophila melanogaster, UniProt P81921); test: Calcium ion fluorescence (GCaMP6) assay, OR47a stable HEK293 cell line; format: cell-based; settings: for Average response: mean of biological replicates; for DF norm AVERAGE OR47a: 0.05 threshold, values below shown as 0
T2 construct: expressed in transfected cells
T2 sequence (P81921 1-385): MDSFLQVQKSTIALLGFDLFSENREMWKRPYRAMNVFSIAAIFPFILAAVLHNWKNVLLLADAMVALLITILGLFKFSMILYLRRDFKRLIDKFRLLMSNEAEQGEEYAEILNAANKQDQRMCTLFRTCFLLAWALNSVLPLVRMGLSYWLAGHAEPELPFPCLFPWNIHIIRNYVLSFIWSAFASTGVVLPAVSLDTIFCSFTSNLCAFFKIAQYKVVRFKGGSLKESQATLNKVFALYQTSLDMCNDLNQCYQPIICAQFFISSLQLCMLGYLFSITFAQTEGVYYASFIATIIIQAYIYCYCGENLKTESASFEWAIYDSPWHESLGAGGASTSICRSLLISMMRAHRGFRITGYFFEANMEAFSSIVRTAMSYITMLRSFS
T2 sequence (Q9VNB5 1-486 partner): T1 sequence (Q9VNB5 1-486 partner)
Description: as §1, §2, §3, §4, §5

[3] = ligand concentration 1 (unit not given)
[4] = ligand concentration 10 (unit not given)
[5] = ligand concentration 100 (unit not given)

SMILES: C=Cc1ccccc1 [styrene]
- activation at 1 µM ([1]; HEK293, read-out: OR13a Average response (VUAA1-normalized), 1 μM VOC, 50 μM VUAA1 = 1, responses not exceeding 0.05 considered 0): 3%
- activation at 10 µM ([1]; HEK293, read-out: OR13a Average response (VUAA1-normalized), 10 μM VOC, 50 μM VUAA1 = 1, responses not exceeding 0.05 considered 0): 0%
- OR13a response (VUAA1-normalized) at 1 μM ([1]; OR13a cell line, VOC concentration 1 μM): 0.00
- OR13a response (VUAA1-normalized) at 10 μM ([1]; OR13a cell line, VOC concentration 10 μM): 0.00
- OR13a response (VUAA1-normalized) at 100 μM ([1]; OR13a cell line, VOC concentration 100 μM): 0.00
- DF norm AVERAGE OR13a [1, 3]: 0
- DF norm AVERAGE OR13a [1, 4]: 0
- DF norm AVERAGE OR13a [1, 5]: 0
- OR47a response (VUAA1-normalized) at 1 μM ([2]; OR47a cell line, VOC concentration 1 μM): 0.00
- OR47a response (VUAA1-normalized) at 10 μM ([2]; OR47a cell line, VOC concentration 10 μM): 0.00
- OR47a response (VUAA1-normalized) at 100 μM ([2]; OR47a cell line, VOC concentration 100 μM): 0.00
- Average response ([2]; OR47a cell line, odorant cc. 1 µM): 0.0246
- Average response ([2]; OR47a cell line, odorant cc. 10 µM): 0.00
- Average response ([2]; OR47a cell line, odorant cc. 100 µM): 0.0286
- DF norm AVERAGE OR47a [2, 3]: 0
- DF norm AVERAGE OR47a [2, 4]: 0
- DF norm AVERAGE OR47a [2, 5]: 0
